According to US20250101108A1, “METHODS TO ENHANCE THERAPEUTIC EFFICACY IN MELANOMA VIA MODULATION OF CELL SURFACE PD-L1/L2” (THE REGENTS OF THE UNIVERSITY OF CALIFORNIA, priority 2021, published 2025):
Read-outs that look alike come from different tables or passages of the source.

How the values were obtained:
ITCH = ITCH (Homo sapiens, UniProt Q96J02); conditions: cited from earlier work
ITCH-FLAG = biological target: T1, ITCH-FLAG (Homo sapiens, UniProt Q96J02); test: Ubiquitination assay (IP and WB detection of UB) in M238 R1 cells expressing ITCH-FLAG; format: cell-based; conditions: 0, 40, 80 μM for 6 days, then MG-132 20 μM 4 hours
T1 construct: expressed in transfected cells
T1 sequence (Q96J02 whole entry): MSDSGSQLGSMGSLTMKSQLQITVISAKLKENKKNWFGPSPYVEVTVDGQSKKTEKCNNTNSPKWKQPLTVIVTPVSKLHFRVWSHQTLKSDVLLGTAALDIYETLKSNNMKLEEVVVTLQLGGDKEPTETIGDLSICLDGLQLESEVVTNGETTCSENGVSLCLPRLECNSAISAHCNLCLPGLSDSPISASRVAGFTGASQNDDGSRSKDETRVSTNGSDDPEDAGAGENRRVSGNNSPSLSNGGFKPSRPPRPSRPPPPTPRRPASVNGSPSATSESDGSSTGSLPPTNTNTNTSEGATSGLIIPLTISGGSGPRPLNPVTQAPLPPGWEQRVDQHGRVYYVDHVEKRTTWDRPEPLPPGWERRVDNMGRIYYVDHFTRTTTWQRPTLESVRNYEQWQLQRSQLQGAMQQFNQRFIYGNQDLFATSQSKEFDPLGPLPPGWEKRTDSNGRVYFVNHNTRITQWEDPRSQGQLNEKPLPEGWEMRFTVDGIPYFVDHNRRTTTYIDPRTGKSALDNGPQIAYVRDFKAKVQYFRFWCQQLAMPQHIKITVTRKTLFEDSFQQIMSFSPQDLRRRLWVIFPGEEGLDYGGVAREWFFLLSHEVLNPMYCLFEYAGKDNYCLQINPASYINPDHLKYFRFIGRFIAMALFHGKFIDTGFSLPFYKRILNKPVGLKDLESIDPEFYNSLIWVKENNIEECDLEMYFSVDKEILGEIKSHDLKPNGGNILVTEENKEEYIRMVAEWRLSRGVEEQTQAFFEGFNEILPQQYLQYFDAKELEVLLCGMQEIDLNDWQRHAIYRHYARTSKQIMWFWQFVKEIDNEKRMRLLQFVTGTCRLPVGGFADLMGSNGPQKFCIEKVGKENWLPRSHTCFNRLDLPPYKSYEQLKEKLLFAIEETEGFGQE
Method: (§1) (6A) Structure and chemical name of AK087. (6B) M238R1 cells with ITCH-FLAG over-expression were treated with 0, 40, or 80 μM of AK087 for 6 days and then treated with MG-132 (20 μM) for 4 hours followed by anti-PD-L1 or anti-FLAG IP and Western blot (WB) detection of UB. (6C) 293T cells co-transfected with PD-L1-FLAG and ITCH-HA were treated with 0, 40, or 80 μM of AK087 for 6 days and then treated with MG-132 (20 μM) for 4 hours followed by anti-HA or anti-FLAG IP and WB detection of UB. (6D) M238R1 cell-surface levels of PD-L1 (left) and PD-L2 (right) as measured by cell-surface staining and FACS analysis after 0, 20, 40, 80 μM AK087 treatment for 6 days. Mean±SEMs (n=3). […]

endogenous PD-L1 = test: Ubiquitination assay (anti-PD-L1 IP and WB detection of UB) in M238 R1 cells; format: cell-based, human; conditions: 0, 40, 80 μM for 6 days, then MG-132 20 μM 4 hours
Method: as §1

[1] = tested on: tumor cell-surface PD-L1/L2; test: Cell-surface PD-L1 and PD-L2 detection by cell-surface staining and FACS analysis in cultured cell lines; format: cell-based, human
Method: as §1
(§2) FIGS. 9A-9N show physical and functional interactions between ITCH and PD-L1/L2. (9A) Cell-surface levels of PD-L2 in M238R1 (left) and MDA-MB-231 (right) cells stably expressing control shRNA (shCtr) or ITCH-targeting shRNAs (shiICH-1, shiICH-2), as measured by cell-surface staining and FACS analysis (PD-L2 is not detectable in H358 cells). MFI, mean fluorescence intensity. […] (9B) Cell-surface levels of PD-L2 in M238 R1 cells stably expressing empty vector (Vec) or over-expression (OE) ITCH, as measured by cell-surface staining and FACS analysis. […] (9C) Cell-surface levels of PD-L1 in M238R1, H358, and MDA-MB-231 stably expressing control shRNA (shCtr) or ITCH-targeting shRNAs (shiICH-1, shiICH-2) and M238R1 stably expressing empty vector (Vec) or OE ITCH, as measured by immunofluorescence staining. […] (9D) PD-L1 internalization in M238 R1 cells stably expressing empty vector (Vec) or OE ITCH, as measured by FACS analysis. […]

total PD-L1 = test: Western blots of total PD-L1 protein levels in cultured cell lines; format: cell-based, human; conditions: for total PD-L1 protein level: 20, 40, 80 μM for 6 days
Method: as §1, §2

[2] = tested on: YUMM1.7ER melanoma tumors; test: Subcutaneous syngeneic YUMM1.7ER tumors on trametinib, acquired MAPKi-resistance; format: in vivo
YUMM1.7ER = test: Response of YUMM1.7ER melanoma to immune checkpoint blockade; format: in vivo, murine; conditions: AK087 10 mg/kg/day subcutaneously with anti-PD-1, anti-CTLA-4
Method: (§3) Data are derived from two murine models of melanoma, YUMM1.ER, Braf^V600MUT melanoma, and NILER1-4, […] melanoma. (15A) YUMM1.7ER. n=9-10 per group. Means±SEM. Anti-PD-1 200 μg/mouse, anti-CTLA-4 200 μg/mouse three times a week for the first two weeks, then change to twice/week treatment. AK087 10 mg/kg/day (Subcutaneously, daily) administration. *p<0.05, student's t test. (15B) NILER1-4. n=8-10 per group. Means±SEM. Anti-PD-1 200 μg/mouse, anti-CTLA-4 200 g/mouse, aLAG-3 200 μg/mouse three times a week for the first two weeks, then change to twice/week treatment. AK087 15 mg/kg/day (Subcutaneously, daily) administration. *p<0.05, student's t test.
as §3, with “melanoma. […]” for “melanoma. (15A) YUMM1.7ER. n=9-10 per group.”, “then changed” for “then change”, “test. […]” for “test. (15B) NILER1-4. n=8-10 per group.”, “200 μg/mouse,” for “200 g/mouse,”

NILER1-4 = test: Response of NILER1-4 melanoma to immune checkpoint blockade; format: in vivo, murine; conditions: AK087 15 mg/kg/day subcutaneously with anti-PD-1, anti-CTLA-4, aLAG-3
Method: as §3
as §3, with “melanoma. […]” for “melanoma. (15A) YUMM1.7ER. n=9-10 per group.”, “then changed” for “then change”, “test. […]” for “test. (15B) NILER1-4. n=8-10 per group.”, “200 μg/mouse,” for “200 g/mouse,”

UBCH7 and ITCH [3] = biological target: T2, UBCH7 and ITCH (Homo sapiens, UniProt Q96J02); test: UBCH7-ITCH interaction, proximity ligation assay (PLA) in cancer cell lines; format: cell-based; conditions: M229R5, H358, M238R1 and M238, 100 μM for 2 days
T2 sequence (Q96J02 whole entry): as above
T2 sequence (P68036 whole entry partner): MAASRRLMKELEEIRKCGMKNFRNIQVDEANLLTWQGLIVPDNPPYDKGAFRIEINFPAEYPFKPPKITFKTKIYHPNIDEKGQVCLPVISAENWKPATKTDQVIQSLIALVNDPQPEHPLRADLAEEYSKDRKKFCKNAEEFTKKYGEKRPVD
Method: Right panel: M229R5, H358, M238R1 and M238 cells were treated with DMSO or AK087 (100 μM) for 2 days followed by proximity ligation assay (PLA) using anti-UBCH7 and anti-ITCH antibodies. Signal dots per cell was quantified by the Duolink ImageTool. For bar graph: n=2-3. Means±SEM. *p<0.05, **p<0.01, student's t test.
For bar graph: n=2-3. Means #SEM. *p<0.05, **p<0.01, student's t test.

UBCH7 and ITCH [4] = biological target: T2, UBCH7 and ITCH; test: UBCH7-ITCH interaction, anti-FLAG immunoprecipitation and WB in HEK293T cells; format: cell-based; design: expressed in transfected cells; host or cells: HEK293T; conditions: HA-UBCH7 and ITCH-FLAG, 100 μM for 24 or 36 hours
[5] = AK087 10 mg/kg/day for 17 days, co-treatment with trametinib
[6] = M238 R1 Vec or OE ITCH, 16 hours

Sequence of ITCH (Q96J02 whole entry, species assumed): as the sequence (Q96J02 whole entry) above

Cc1ccc(N2C(=O)C(Cl)=C(N3CCCCC3)C2=O)cc1 [RL 2, 3-chloro-1-(4-methylphenyl)-4-piperidin-1-yl-1H-pyrrole-2,5-dione]
Activity (%) (ITCH; Screening concentration 10 uM): 141%

Cc1ccc(NS(=O)(=O)c2ccccc2)cc1C [RL 3, N-(3,4-dimethylphenyl)benzenesulfonamide]
Activity (%) (ITCH; Screening concentration 10 uM): 140%

Cc1ccc(S(=O)(=O)c2cc3ccc(C)n3cn2)cc1 [RL 4, 4-methylphenyl 7-methylpyrrolo[1,2-c]pyrimidin-3-yl sulfone]
Activity (%) (ITCH; Screening concentration 10 uM): 145%

COc1cc2oc(=O)cc(C)c2c(OC)c1OC [RL 5, 5,6,7-trimethoxy-4-methyl-2H-chromen-2-one]
poly/auto-ubiquitination of ITCH-FLAG (ITCH-FLAG): dose-dependently enhanced | poly-ubiquitination of endogenous PD-L1 (endogenous PD-L1): enhancing the poly-ubiquitination | tumor cell-surface PD-L1 ([1]; H358, 0, 20, 40, 80 μM for 6 days): dose-dependently reduced | tumor cell-surface PD-L1/L2 ([1]; M238 R1, 0, 20, 40, 80 μM for 6 days): dose-dependently reduced | total PD-L1 protein level (total PD-L1; H358): dose-dependently reduced | total PD-L1 protein level (total PD-L1; M238 R1): dose-dependently reduced | body weight loss / toxicities [2, 5]: no appreciable body weight loss or superficial evidence of toxicities | complete responses [2, 5]: 5 of 9 | acquired MAPKi-resistance ([2]; AK087 10 mg/kg/day subcutaneously for 17 days, co-treatment with trametinib 0.45 mg/kg/d): suppressed acquired MAPKi-resistance | response to immune checkpoint blockade (YUMM1.7ER): improves responses | response to immune checkpoint blockade (NILER1-4): improves responses | interaction between UBCH7 and ITCH (UBCH7 and ITCH [3]): enhances the interaction | Activity (%) (ITCH; Screening concentration 10 uM): 140% | enhancement of auto-ubiquitination of ITCH (ITCH; reconstituted recombinant proteins, small molecule screen (ref. 25)): 140% | interaction between UBCH7 and ITCH (UBCH7 and ITCH [4]): enhances the interaction

Cc1[nH]nc2c1C(c1ccccc1OC(C)C)C(C#N)=C(N)O2 (stereo not shown) [RL 6, 6-amino-3-methyl-4-{2-[(1-methylethyl)oxy]phenyl}-2,4-dihydropyrano[2,3-c]pyrazole-5-carbonitrile]
Activity (%) (ITCH; Screening concentration 10 uM): 194%

CCN(CC)CCCC(C)Nc1ccnc2cc(Cl)ccc12 (stereo not shown) [chloroquine, reference compound]
down-regulation of cell-surface PD-L1 levels elicited by ITCH over-expression [1, 6]: rescued down-regulation | down-regulation of total PD-L1 levels elicited by ITCH over-expression (total PD-L1; [6]): rescued down-regulation

CHLORO- PHYLLIDE Cu COMPLEX Na SALT [RL 1]
Activity (%) (ITCH; Screening concentration 20 uM): 147%
